Measurements from patent US6221865A, “Inhibitors of protein isoprenyl transferases” (priority 1998, dated 2001).
Where a name gives a salt, the structure may show the parent alone. Values belong to the molecule of their own block, whether it stands above or below them.

Biological target: T1, protein farnesyltransferase (Rattus norvegicus, UniProt Q02293+Q04631)
T1 construct: The enzyme is purified according to Reiss, Y., et al., Cell, 62: 81-88 (1990), utilizing steps one through three; from tissue; host or cells: rat brain
T1 sequence (Q02293 whole entry, one chain of several): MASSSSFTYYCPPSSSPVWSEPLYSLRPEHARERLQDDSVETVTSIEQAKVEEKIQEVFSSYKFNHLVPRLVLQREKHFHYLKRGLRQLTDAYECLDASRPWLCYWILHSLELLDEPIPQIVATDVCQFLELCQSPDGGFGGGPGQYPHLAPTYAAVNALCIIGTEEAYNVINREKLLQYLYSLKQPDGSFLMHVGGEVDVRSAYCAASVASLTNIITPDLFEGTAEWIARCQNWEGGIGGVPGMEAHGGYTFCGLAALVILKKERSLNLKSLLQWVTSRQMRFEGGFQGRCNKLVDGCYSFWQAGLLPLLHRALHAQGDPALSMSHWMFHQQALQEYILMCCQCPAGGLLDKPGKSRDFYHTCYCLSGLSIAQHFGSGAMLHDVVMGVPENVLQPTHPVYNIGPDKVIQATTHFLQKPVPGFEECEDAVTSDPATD
Assay: Inhibition of farnesyltransferase (scintillation proximity assay, rat brain enzyme, biotin-K Ras B fragment substrate)
Assay type: biochemical
Conditions: for % inhibition of farnesyltransferase at 1 × 10^-6 M / inhibition at 1 µM: 1 × 10^-6 M (Table 2); for inhibition at 0.01 µM: read-out: % inhibition at 0.01 μM (**); for % inhibition of farnesyltransferase at 1 × 10^-7 M: 1 × 10^-7 M (Table 3); for inhibition at 1 µM: read-out: % inhibition of farnesyltransferase at 1 × 10^-6 M; for % inhibition of farnesyltransferase at 1 × 10^-8 M: 1 × 10^-8 M (Table 4); for % inhibition of farnesyltransferase at 1 × 10^-5 M: 1 × 10^-5 M (Table 1)
Description: The ability of the compounds of the invention to inhibit protein farnesyltransferase or protein geranylgeranyltransferase can be measured according to the method of Moores, et al., J. Biol. Chem. 266: 14603 (1991) or the method of Vogt, et al., J. Biol. Chem. 270:660-664 (1995). In addition, procedures for determination of the inhibition of farnesylation of the oncogene protein Ras are described by Goldstein, et al., J. Biol. Chem., 266:15575-15578 (1991) and by Singh in U.S. Pat. No. 5,245,061.
In addition, in vitro inhibition of protein farnesyltransferase may be measured by the following procedure. Rat brain protein farnesyltransferase activity is measured using an Amersham Life Science commercial scintillation proximity assay kit and substituting a biotin-K Ras B fragment (biotin-[…]Ble-Met-CO2 H), […] final concentration, for the biotin-lamin substrate provided by Amersham. The enzyme is purified according to Reiss, Y., et al., Cell, 62: 81-88 (1990), utilizing steps one through three.
The % inhibition of protein farnesyltransferase was determined for representative compounds of the invention.

[1] = Table 6, ** = 0.01 μM (footnote), title prints 0.01 mM

Compound: CSCC[C@H](NC(=O)c1ccc(CSC2CCCCC2)cc1-c1ccccc1C)C(=O)[O-].[Li+] [Example 550]
- % inhibition of farnesyltransferase at 1 × 10^-6 M: 96%

Compound: CCSC[C@H](CC1CCCCC1)N(Cc1ccc(C(=O)N[C@@H](CCSC)C(=O)O)c(-c2ccccc2C)c1)C(=O)OC(C)(C)C [Example 948]
- % inhibition of farnesyltransferase at 1 × 10^-7 M: 75%

Compound: CSCC[C@H](NC(=O)c1ccc(CNc2ccc(S(=O)(=O)Nc3onc(C)c3C)cc2)cc1-c1ccccc1C)C(=O)O [Example 726]
- % inhibition of farnesyltransferase at 1 × 10^-6 M: 81%

Compound: CSCC[C@H](NC(=O)c1ccc(CN(CCC2CCCCC2)C(=O)N(C)C)cc1-c1ccccc1C)C(=O)O [Example 610]
- % inhibition of farnesyltransferase at 1 × 10^-6 M: 94%

Compound: CSCC[C@H](NC(=O)c1ccc(CNc2ccc(-c3ccccc3)cc2)cc1-c1ccccc1)C(=O)O [Example 700]
- % inhibition of farnesyltransferase at 1 × 10^-5 M: 68%

Compound: CSCC[C@H](NC(=O)c1ccc(COCCC23CC4CC(CC(C4)C2)C3)cc1-c1ccccc1C)C(=O)O [Example 404]
- % inhibition of farnesyltransferase at 1 × 10^-6 M: 98%

Compound: CSCC[C@H](NC(=O)c1ccc(CNc2cccc(N(C)C)c2)cc1-c1ccccc1)C(=O)O [Example 683]
- % inhibition of farnesyltransferase at 1 × 10^-5 M: 57%

Compound: CSCC[C@H](NC(=O)c1ccc(CNCCC2CCCCC2)cc1-c1ccccc1C)C(=O)O.O=C(O)C(F)(F)F [Example 607]
- % inhibition of farnesyltransferase at 1 × 10^-6 M: 96%

Compound: CSCC[C@H](NC(=O)c1ccc(CN(Cc2ccccc2)c2ccccc2[N+](=O)[O-])cc1-c1ccccc1C)C(=O)[O-].[Li+] [Example 849]
- % inhibition of farnesyltransferase at 1 × 10^-7 M: 66%

Compound: COc1ccc(CCNS(=O)(=O)c2ccc(C(=O)N[C@@H](CCSC)C(=O)O)c(-c3ccccc3C)c2)cc1OC [Example 776]
- inhibition at 1 µM: 36%

Compound: CSCC[C@H](NC(=O)c1ccc(CCCc2ccc3ccccc3c2)cc1-c1ccccc1C)C(=O)O [Example 470, N-[4-(3-naphth-2-ylpropyl)-2-(2-methylphenyl)benzoyl]methionine lithium salt]
- inhibition at 1 µM: 95%

Compound: CSCC[C@H](NC(=O)c1ccc(COCc2ccc(-c3cccc(F)c3)o2)cc1-c1ccccc1C)C(=O)[O-].[Li+] [Example 436]
- % inhibition of farnesyltransferase at 1 × 10^-7 M: 89%

Compound: CSCC[C@H](NC(=O)c1ccc(/C=C/c2ccc3ccccc3c2)cc1-c1ccccc1C)C(=O)O [Example 465, N-[4-(2-naphth-2-ylethenyl)-2-(2-methylphenyl)benzoyl]methionine]
- inhibition at 1 µM: 92%

Compound: CSCC[C@H](NC(=O)c1ccc(COCc2ccc(-c3ccc(C(C)C)cc3)o2)cc1-c1ccccc1C)C(=O)[O-].[Li+] [Example 820]
- % inhibition of farnesyltransferase at 1 × 10^-8 M: 66%

Compound: CSCC[C@H](NC(=O)c1ccc(COCc2cnc(-c3ccccc3Cl)o2)cc1-c1ccccc1C)C(=O)[O-].[Li+] [Example 892]
- % inhibition of farnesyltransferase at 1 × 10^-8 M: 59%

Compound: CSCC[C@H](NC(=O)c1ccc(CCc2ccccc2-c2ccccc2)cc1-c1ccccc1C)C(=O)O [Example 452, N-[4-(2-(2-phenylphenyl)ethyl)-2-(2-methylphenyl)benzoyl]methionine lithium salt]
- inhibition at 1 µM: 96%

Compound: CSCCC(NC(=O)c1ccc(NC(=O)C2CCCNC2)cc1-c1ccccc1)C(=O)O (stereo not drawn) [Example 231]
- % inhibition of farnesyltransferase at 1 × 10^-6 M: 50%

Compound: CCSC[C@H](CC1CCCCC1)N(Cc1ccc(C(=O)N[C@@H](CCSC)C(=O)O)c(-c2ccccc2C)c1)C(C)=O [Example 947]
- % inhibition of farnesyltransferase at 1 × 10^-7 M: 79%

Compound: CSCC[C@H](NC(=O)c1ccc(CN(C(C)C)C2(CC3CCCCC3)CC2)cc1-c1ccccc1C)C(=O)O [Example 326]
- inhibition at 1 µM: 91%

Compound: CSCC[C@H](NC(=O)c1ccc(CNc2cccc(C(N)=O)c2)cc1-c1ccccc1)C(=O)O [Example 682]
- % inhibition of farnesyltransferase at 1 × 10^-6 M: 31%

Compound: CSCC[C@H](NC(=O)c1ccc(CSCCc2ccccc2)cc1-c1ccccc1C)C(=O)[O-].[Li+] [Example 562]
- % inhibition of farnesyltransferase at 1 × 10^-7 M: 95%

Compound: CSCC[C@H](NC(=O)c1ccc(COc2ccc(Oc3ccccc3)cc2)cc1-c1ccccc1C)C(=O)[O-].[Li+] [Example 795]
- % inhibition of farnesyltransferase at 1 × 10^-7 M: 87%

Compound: CSCC[C@H](NC(=O)c1ccc(CN(CCF)CCC2CCCCC2)cc1-c1ccccc1C)C(=O)O [Example 1094]
- % inhibition at 0.01 μM (**) [1]: 96%

Compound: CSCC[C@H](NC(=O)c1ccc(CCc2cccc3ccccc23)cc1-c1ccccc1C)C(=O)O [Example 467, N-[4-(2-naphth-1-ylethyl)-2-(2-methylphenyl)benzoyl]methionine lithium salt]
- inhibition at 1 µM: 97%

Compound: COc1ncc(COCc2ccc(C(=O)N[C@@H](CCSC)C(=O)O)c(-c3ccccc3C)c2)s1 [Example 896]
- % inhibition of farnesyltransferase at 1 × 10^-7 M: 96%

Compound: CSCC[C@H](NC(=O)c1ccc(COCc2ccc(C)cc2)cc1-c1ccccc1C)C(=O)[O-].[Li+] [Example 579]
- % inhibition of farnesyltransferase at 1 × 10^-7 M: 92%

Compound: CSCC[C@H](NC(=O)c1ccc(CNc2ccccc2Oc2ccccc2)cc1-c1ccccc1)C(=O)O [Example 645]
- % inhibition of farnesyltransferase at 1 × 10^-6 M: 37%

Compound: CSCCC(NC(=O)c1ccc(NC(=O)Cc2cscn2)cc1-c1ccccc1)C(=O)O (stereo not drawn) [Example 162]
- % inhibition of farnesyltransferase at 1 × 10^-6 M: 12%

Compound: CSCC[C@H](NC(=O)c1ccc(COCc2occc2-c2ccc(Cl)cc2)cc1-c1ccccc1C)C(=O)[O-].[Li+] [Example 827]
- % inhibition of farnesyltransferase at 1 × 10^-8 M: 77%

Compound: CSCC[C@H](NC(=O)c1ccc(CNCCCN2CCOCC2)cc1-c1ccccc1)C(=O)O [Example 377]
- % inhibition of farnesyltransferase at 1 × 10^-5 M: 71%

Compound: CSCC[C@H](NC(=O)c1ccc(CN(C(=O)OC(C)(C)C)C(CC2CCCCC2)CC2CCCCC2)cc1-c1ccccc1C)C(=O)O [Example 886]
- % inhibition of farnesyltransferase at 1 × 10^-6 M: 35%

Results, then the molecule that gave them:

- inhibition at 0.01 µM [1]: 83%
Compound: CSCC[C@H](NC(=O)c1ccc(CN2CC[C@H]2COCC2CCCCC2)cc1-c1ccccc1C)C(=O)O [Example 1114, N-[4-(2(S)-cyclohexylmethoxymethylazetidin-1-ylmethyl)-2-(2-methylphenyl)benzoyl]methionine]

- % inhibition of farnesyltransferase at 1 × 10^-6 M: 68%
Compound: COc1ccccc1CNCc1ccc(C(=O)N[C@@H](CCSC)C(=O)O)c(-c2ccccc2)c1 [Example 650]

- inhibition at 1 µM: 62%
Compound: CSCC[C@H](NC(=O)c1ccc(CNC(C)(C)CC2CCCCC2)cc1-c1ccccc1C)C(=O)O [Example 308]

- % inhibition of farnesyltransferase at 1 × 10^-8 M: 97%
Compound: CSCC[C@H](NC(=O)c1ccc(CN[C@H](CSc2ccccc2C)CC2CCCCC2)cc1-c1ccccc1C)C(=O)O [Example 767]

- inhibition at 1 µM: 88%
Compound: CSCC[C@H](NC(=O)c1ccc(CN2CCCC(OCc3ccccc3)C2)cc1-c1ccccc1C)C(=O)O (stereo partly drawn) [Example 989, N-[4-(3-benzyloxypiperidin-1-ylmethyl)-2-(2-methylphenyl)benzoyl]methionine]

- inhibition at 1 µM: 92%
Compound: CSCC[C@H](NC(=O)c1ccc(CN2CCC(OCc3ccccc3)C2)cc1-c1ccccc1C)C(=O)O (stereo partly drawn) [Example 988, N-[4-(3-benzyloxypyrrolidin-1-ylmethyl)-2-(2-methylphenyl)benzoyl]methionine]

- % inhibition of farnesyltransferase at 1 × 10^-8 M: 79%
Compound: CSCC[C@H](NC(=O)c1ccc(CO[C@H](CSC)CC2CCCCC2)cc1-c1ccccc1C)C(=O)O [Example 882]

- inhibition at 0.01 µM [1]: 91%
Compound: CSCC[C@H](NC(=O)c1ccc(CN2CCN(Cc3ccccc3)CC2)cc1-c1ccccc1C)C(=O)O [Example 1025]

- inhibition at 1 µM: 92%
Compound: CSCC[C@H](NC(=O)c1ccc(C=CCc2ccccc2)cc1-c1ccccc1C)C(=O)O (mixture of isomers) [Example 469, N-[4-(3-phenylprop-1-enyl)-2-(2-methylphenyl)benzoyl]methionine (1:1 mixture of olefin isomers)]

- inhibition at 0.1 µM (read-out: % inhibition at 0.1 μM (*), Table 6, * = 0.1 μM (footnote), title prints 0.1 mM): 86%
Compound: COCC1CCC(Cc2ccccc2)N1Cc1ccc(C(=O)N[C@@H](CCSC)C(=O)O)c(-c2ccccc2C)c1 (stereo partly drawn) [Example 1118, N-[4-(2-methoxymethyl-5-benzylpyrrolidin-1-ylmethyl)-2-(2-methylphenyl)benzoyl]methionine]

- % inhibition of farnesyltransferase at 1 × 10^-8 M: 79%
Compound: CCCCC(Cc1ccccc1Cl)OCc1ccc(C(=O)N[C@@H](CCSC)C(=O)O)c(-c2ccccc2C)c1 (stereo partly drawn) [Example 943]

- % inhibition of farnesyltransferase at 1 × 10^-6 M: 72%
Compound: CSCC[C@H](NC(=O)c1ccc(CN(CCO)Cc2ccccc2)cc1-c1ccccc1)C(=O)O [Example 515]

- % inhibition of farnesyltransferase at 1 × 10^-7 M: 86%
Compound: CSCC[C@H](NC(=O)c1ccc(CN[C@@H](CO)C2CCCCC2)cc1-c1ccccc1C)C(=O)O [Example 604]

- % inhibition of farnesyltransferase at 1 × 10^-5 M: 40%
Compound: CSCC[C@H](NC(=O)c1ccc(CNCCCCc2ccccc2)cc1-c1ccccc1)C(=O)O [Example 718]

- % inhibition of farnesyltransferase at 1 × 10^-7 M: 96%
Compound: CSCC[C@H](NC(=O)c1ccc(CSC2=NCCS2)cc1-c1ccccc1C)C(=O)O [Example 730]

- % inhibition of farnesyltransferase at 1 × 10^-6 M: 99%
Compound: CCOC[C@H](CC1CCCCC1)OCc1ccc(C(=O)N[C@@H](CCSC)C(=O)O)c(-c2ccccc2C)c1 [Example 525]

- % inhibition of farnesyltransferase at 1 × 10^-6 M: 88%
Compound: CSCC[C@H](NC(=O)c1ccc(CS[C@H](CO)Cc2ccccc2)cc1-c1ccccc1)C(=O)O [Example 545]
